pIC50: −log10 of the molar value. Entries after “also recorded” stand apart in the source; their conditions may differ.

One compound from patent US20210283211A1, “COMPOSITIONS AND METHODS OF ALLEVIATING RESISTANCE TO CHEMOTHERAPY” (CITY OF HOPE, priority 2019, published 2021) can be followed below.

Experiment [1] deals with ITGB4 and PXN expression, γH2AX in H358 cells. Description: Immunoblot after sublethal dose. Conditions: 72 hours. It is filed as cell-based, human. Here is the method:
(§1) West blotting: Cell lysates were prepared with 1×RIPA buffer (MilliporeSigma) and denatured in 1× reducing sample buffer at 95° C. for 5 minutes. Protein samples (15 μg) were run on 4-15% TGX gels (Bio-Rad, Hercules, Calif., USA) and transferred onto nitrocellulose membranes (Bio-Rad). Blots were blocked with 5% non-fat milk in TBS-T for 1 hour at room temperature and probed with primary antibody diluted in 2.5% BSA in TBS-T overnight at 4° C. After three washes with TBS-T, blots were incubated with HRP-conjugated secondary antibodies for 2 hours at room temperature. After three more washes, bands of interest were visualized via chemiluminescence using Western Bright ECL HRP substrate (Advansta, Menlo Park, Calif., USA) and imaged with the ChemiDoc MP imager (Bio-Rad).
(§2) Then a sublethal dose was used to determine the effect of these compounds on ITGB4 and PXN expression and caspase activity (FIG. 9I). […] These eleven compounds were further screened in the cisplatin-resistant cell line H2009. […] Further, carfilzomib was tested in another cisplatin-resistant cell line H1993.
(A western blot detects proteins with antibodies after separation by electrophoresis.)

A further experiment has as its system H2009 spheroids. Description: 3D spheroid assay (red fluorescence viability, caspase-3/7). The class given is cell-based, human. To be noted: 300 nM, 72 hours. How it is done: 3D spheroid assay. 3D spheroid experiments were performed using cell lines stably transfected with NucLight Red Lentivirus (Essen Bioscience) to visualize red fluorescence as an indicator of cell viability. Cells were seeded on a 96-well ultra-low attachment plate and allowed to form spheroids overnight. Drug treatment was added as indicated along with Cytotox Green Reagent (Essen BioScience), used as a green fluorescence indicator of cell death due to loss of cell membrane integrity. To monitor cell proliferation and apoptosis over time, the plate was placed in the IncuCyte S3 Live-Cell Analysis System (Essen BioScience) and images were acquired every 2 hours. Data analysis was generated by the IncuCyte software using a red fluorescence mask to accurately measure intensity and area of red fluorescence, indicating spheroid viability and a green fluorescence mask, indicating cell death.
Confocal microscopy. […] Images were processed using ZEN software and analyzed using ImageJ (Schneider, C. A.; Rasband, W. S. & Eliceiri, K. W. (2012), “NIH Image to ImageJ: 25 years of image analysis”, Nature methods 9(7): 671-675, PMID 22930834).
To mimic conditions closer to in vivo, the effect of knocking down PXN or ITGB4 was discerned in spheroids (3D) formed from the cell lines used in 2D culture. […] The spheroid growth and survival were quantitated by monitoring dye intensity and area in real time. […]

Another experiment concerns H1993 cells. Description: Carfilzomib dose response on cell proliferation, IC50 determination. The class given is cell-based, human. To be noted: increasing dose. How it is done: Cell proliferation and apoptosis assay. Cell proliferation assays were performed using cell lines stably transfected with NucLight Red Lentivirus (Essen Bioscience) to accurately visualize and count the nucleus of a single cell. Cells were seeded on a 96-well plate and allowed to adhere for 24 hours. Test compounds were added at indicated concentrations. Caspase-3/7 Green Apoptosis Reagent (Essen Bioscience) was also added as a green fluorescent indicator of caspase-3/7-mediated apoptotic activity. To monitor cell proliferation and apoptosis over time, the plate was placed in the IncuCyte S3 Live-Cell Analysis System (Essen BioScience) and images were acquired every 2 hours. Data analysis was generated by the IncuCyte software using a red fluorescence mask to accurately count each cell nucleus and a green fluorescence mask to measure apoptosis over time.
as §2

For experiment [2], the system named is ITGB4, PXN, USP1, VDAC1, CD133 in patient-derived organoids. Description: Immunoblot of treated patient-derived organoids. It is filed as cell-based, human. To be noted: 48 hours, printed 2.5 mM and 5 mM.
Experiment [3] deals with ITGB4, PXN, FAK, p27, phospho-Rb, γH2AX, cleaved PARP in H2009 cells. Description: Immunoblot. The class given is cell-based, human. To be noted: sublethal dose. How it is done: as §1, §2
Experiment [4] deals with ITGB4, PXN, FAK, MET, γH2AX, cleaved PARP in H1993 cells. Description: Immunoblot. It is filed as cell-based, human. To be noted: 50-200 nM carfilzomib. Here is the method: as §1, §2
Another experiment relates to H2009 cells. Description: cells. The class given is cell-based. To be noted: Homo sapiens. Here is the method:
Cell viability assay: Cell Counting Kit-8 (CCK-8) was purchased from Dojindo Molecular Technologies (Rockville, Md., USA). Cells were seeded on a 96-well plate and allowed to adhere in complete medium for 24 hours. Test compounds were added to 100 μl of medium at the indicated concentrations for 72 hours. Ten μl of the CCK-8 reagent were added to each well and absorbance at 450 nm was measured using a Tecan Spark 10M multimode microplate reader.
as §2

The term pIC50 denotes the IC50 on a negative log10 scale, so that one unit is a factor of ten. Low readings indicate a large IC50, high ones a small IC50. As for `CC(C)C[C@H](NC(=O)[C@H](CCc1ccccc1)NC(=O)CN1CCOCC1)C(=O)N[C@@H](Cc1ccccc1)C(=O)N[C@@H](CC(C)C)C(=O)[C@@]1(C)CO1` [Carfilzomib], the “apoptosis, DNA damage (γH2AX) and ITGB4 expression” value in experiment [1] is “induced apoptosis and caused DNA damage”. The “drop in red intensity of spheroid” value in the experiment on H2009 spheroids was found to be 2 fold. In addition, the “increase in caspase activity” value in the experiment with H2009 spheroids is 2 fold. Besides, the negative-log IC50 (pIC50) was 5.75 in the experiment on H1993 cells (H1993 cells); 5.77 in the experiment on H1993 cells (Homo sapiens, NCI-H1993, H1993 cells); 6.38 with H2009 cells (NCI-H2009, H2009 cells, increasing dose, 72 hours). In addition, the “protein expression by immunoblot” value in experiment [2] is “decrease in the expression of ITGB4, USP1, PXN and VDAC1; also recorded: decreased expression of ITGB4, PXN, USP1, VDAC1 and CD133”; in experiment [3] it was “reduced ITGB4 and PXN expression; also recorded: reduced expression of ITGB4 and phospho-Rb (S807/811) and increased expression of p27, γH2AX, and cleaved PARP”; in experiment [4], “reduction in ITGB4 expression and increase in cleaved PARP and γH2AX”. The cytotoxicity at 0.08 µM with H2009 cells (NCI-H2009, 72 h, read-out: reduction in the cell viability) was 80%.
